Type in all cases: in vivo, CD-1 mice
One assay concerns Echis ocellatus venom. Nature of the assay: Murine preincubation (co-incubation) model of venom lethality, intravenous, with TAT ELISA. The settings on record: 45 μg venom (2.5×LD50) preincubated 30 min at 37° C. with 60 μg of each drug, i.v., 6 h monitoring, n=5. Here is the method:
The intravenous median lethal dose (venom LD50) for E. ocellatus (Nigeria) of 17.85 μg per mouse was previously determined. Mice were challenged with 45 μg of E. ocellatus venom (2.5×the intravenous LD50 dose) in a refined version of the World Health Organization-recommended antivenom efficacy experiments. Groups of five male 18-22 g CD-1 mice (Charles River, UK) received experimental doses that consisted of either (a) venom only (2.5×LD50 dose), (b) venom and drug (60 μg) or (c) drug only. All experimental doses were prepared to a volume of 200 μl in PBS and incubated at 37° C. for 30 mins prior to their intravenous injection via the tail vein. Animals were monitored for 6 hours and euthanized upon observation of humane endpoints (seizure, pulmonary distress, paralysis, hemorrhage). Deaths, time of death, and survivors were recorded; where “deaths/time of death” represents the implementation of euthanasia based on the defined humane endpoints.
(§1) The same murine preincubation model was used to assess the efficacy of distinct toxin family inhibiting drugs in comparison with a drug combination. […] All experimental doses were prepared to a volume of 200 μl in PBS and incubated at 37° C. for 30 min prior to their intravenous injection via the tail vein. Animals were monitored for 6 h, and euthanized via rising concentrations of CO2 upon observation of previously defined humane end points that are predicators of lethality (e.g., seizure, pulmonary distress, paralysis, hemorrhage). Deaths, time of death, and survivors were recorded; where death/time of death represents the implementation of euthanasia based on defined humane end points.
Strong drug hits, those defined as inhibiting >80% of the venom activity in the previously described in vitro metalloproteinase assay (FIG. 1), were next progressed into murine preclinical efficacy studies, to assess their ability to prevent venom-induced lethality in vivo. We used an established in vivo model of envenoming to test the efficacy of the seven snake venom metalloproteinase toxin inhibitors identified. This model consisted of the preincubation of the test drug with venom, followed by intravenous injection of the mixture into groups of five male CD-1 mice (18-20 g) via the tail vein followed by 6 hour monitoring, and is based on principles laid out in the gold standard method of preclinical efficacy recommended by the World Health Organization.
We used an established in vivo model of envenoming^41,42 to test the efficacy of small molecule toxin inhibitors. […]

Another assay relates to C. scutulatus venom. Nature of the assay: Murine preincubation model of venom lethality, North American pit viper venom. The settings on record: 2.5×LD50 C. scutulatus venom preincubated with 60 μg of each drug, i.v., 6 h, n=5. How it is done:
as §1, with “Thereafter, the” for “The”, “animal” for “preincubation”, “explore” for “assess”, “the same snake venom metalloproteinase and phospholipase A2” for “distinct toxin family”, “as solo and combination treatments against North American pit viper venoms. The intravenous median lethal dose (venom LD50) for C. atrox, C. scutulatus, S. miliariius and A. contortrix venoms was previously determined (3.79 μg, 0.17 μg, 4.87 μg and 4.99 μg per mouse, respectively).” for “in comparison with a drug combination.”, “As described above, all” for “All”
(§2) These snake species were selected for their taxonomic diversity and clinical importance in the USA, namely: 1) Crotalus atrox (Western diamondback), which is found across the southwest USA and into Mexico and is thought to be the most common cause of snakebite envenoming in USA, 2) Crotalus scutulatus (Mojave rattlesnake), which is also found across the southwest USA and into Mexico, 3) Sistrurus miliarius (pygmy rattlesnake), which is found in the South-East USA, and 4) Agkistrodon contortrix (Eastern copperhead), which is found in central and eastern USA. […] The drug treatments consisted of: DMPS, marimastat, or varespladib as solo drug treatments, or a DMPS and varespladib combination, or a marimastat and varespladib combination.

For a further assay, the system named is C. atrox venom. Described as above. The settings on record: 2.5×LD50 C. atrox venom preincubated with 60 μg of each drug, i.v., 6 h, n=5. Here is the method: as §1, with “Thereafter, the” for “The”, “animal” for “preincubation”, “explore” for “assess”, “the same snake venom metalloproteinase and phospholipase A2” for “distinct toxin family”, “as solo and combination treatments against North American pit viper venoms. The intravenous median lethal dose (venom LD50) for C. atrox, C. scutulatus, S. miliariius and A. contortrix venoms was previously determined (3.79 μg, 0.17 μg, 4.87 μg and 4.99 μg per mouse, respectively).” for “in comparison with a drug combination.”, “As described above, all” for “All”
as §2

The next assay concerns A. contortrix venom. The description is as above. The settings on record: 2.5×LD50 A. contortrix venom preincubated with 60 μg of each drug, i.v., 6 h, n=5. Here is the method: as §1, with “Thereafter, the” for “The”, “animal” for “preincubation”, “explore” for “assess”, “the same snake venom metalloproteinase and phospholipase A2” for “distinct toxin family”, “as solo and combination treatments against North American pit viper venoms. The intravenous median lethal dose (venom LD50) for C. atrox, C. scutulatus, S. miliariius and A. contortrix venoms was previously determined (3.79 μg, 0.17 μg, 4.87 μg and 4.99 μg per mouse, respectively).” for “in comparison with a drug combination.”, “As described above, all” for “All”
as §2

The structures appear in SMILES notation. “Also recorded” adds a separate entry of the source.

For `CCc1c(C(=O)C(N)=O)c2c(OCC(=O)O)cccc2n1Cc1ccccc1` [varespladib], the “survival / protection against venom-induced lethality” value (from here on “survival / protection”) with Echis ocellatus venom is reported as “failed to prevent lethality over the full experimental time course”. Also, the entries for the “protection against venom lethality” value with C. scutulatus venom, with C. atrox venom and with A. contortrix venom were “survive the duration of the experiment”, “survived for longer periods of time than the venom only controls” and “survived for longer periods of time than the venom only controls”, respectively.
Turning to `CNC(=O)[C@@H](NC(=O)[C@H](CC(C)C)[C@H](O)C(=O)NO)C(C)(C)C` [marimastat], in the assay on Echis ocellatus venom, the “survival / protection” value was “only one death; also recorded: remaining four survived”. Moreover, the entries for the “protection against venom lethality” value with C. scutulatus venom, in the assay with C. atrox venom and in the assay on A. contortrix venom were “some limited protection”, “Neither drug provided protection” and “Neither drug provided protection”, respectively.
Take `O=S(=O)(O)CC(S)CS` (stereo not drawn) [DMPS, 2,3-dimercapto-1-propanesulfonic acid]: the “survival / protection” value in the assay on Echis ocellatus venom is “all animals surviving; also recorded: complete protection”. Moreover, the entries for the “protection against venom lethality” value with C. scutulatus venom, in the assay with C. atrox venom and in the assay on A. contortrix venom were “some limited protection”, “Neither drug provided protection” and “Neither drug provided protection”, respectively.

Source of the values: patent US12285408B2, “Methods and compositions for the treatment of snake bite” (priority 2021, dated 2025).
